Results published in ChEMBL document CHEMBL5335767, “Synthesis and study of new siderophore analog-ciprofloxacin conjugates with antibiotic activities against Pseudomonas aeruginosa and Burkholderia spp” (Eur J Med Chem, 2023).
≈ marks a conversion by molar mass, not a printed value.

Tests used:
Pseudomonas aeruginosa [1] = assay: Antibacterial activity against Pseudomonas aeruginosa PAO1 under muller hinton medium by CLSI protocol based microdilution method; format: functional
[2] = tested on: Burkholderia thailandensis; assay: Antibacterial activity against Burkholderia thailandensis E264TS32C47 under succinate minimum medium by CLSI protocol based microdilution method; format: functional
[3] = tested on: Burkholderia pseudomallei; assay: Antibacterial activity against Burkholderia pseudomallei BPS2020IRBA002 under succinate minimum medium by CLSI protocol based microdilution method; format: functional
Pseudomonas aeruginosa [4] = assay: Antibacterial activity against Pseudomonas aeruginosa PAD07 under succinate minimum medium by CLSI protocol based microdilution method; format: functional
[5] = tested on: Burkholderia pseudomallei; assay: Antibacterial activity against Burkholderia pseudomallei BPS2020IRBA003 under 1 uM FeCl3 medium by CLSI protocol based microdilution method; format: functional
[6] = tested on: Burkholderia pseudomallei; assay: Antibacterial activity against Burkholderia pseudomallei BPS2020IRBA001 under succinate minimum medium by CLSI protocol based microdilution method; format: functional
[7] = tested on: Burkholderia thailandensis; assay: Antibacterial activity against Burkholderia thailandensis E264TS32C10 under succinate minimum medium by CLSI protocol based microdilution method; format: functional
Pseudomonas aeruginosa [8] = assay: Antibacterial activity against Pseudomonas aeruginosa PAD07 under muller hinton medium by CLSI protocol based microdilution method; format: functional
[9] = tested on: Burkholderia pseudomallei; assay: Antibacterial activity against Burkholderia pseudomallei BPS2020IRBA001 under 1 uM FeCl3 medium by CLSI protocol based microdilution method; format: functional
[10] = tested on: Burkholderia pseudomallei; assay: Antibacterial activity against Burkholderia pseudomallei K96243 under 1 uM FeCl3 medium by CLSI protocol based microdilution method; format: functional
[11] = tested on: Burkholderia thailandensis; assay: Antibacterial activity against Burkholderia thailandensis E264TS32C12 under succinate minimum medium by CLSI protocol based microdilution method; format: functional
[12] = tested on: Burkholderia pseudomallei; assay: Antibacterial activity against Burkholderia pseudomallei BPS2020IRBA004 under muller hinton medium by CLSI protocol based microdilution method; format: functional
[13] = tested on: Burkholderia pseudomallei; assay: Antibacterial activity against Burkholderia pseudomallei K96243 under muller hinton medium by CLSI protocol based microdilution method; format: functional
[14] = Antibacterial activity against Burkholderia pseudomallei BPS2020IRBA005 under 1 uM FeCl3 medium by CLSI protocol based microdilution method; format: functional; settings: Burkholderia thailandensis
[15] = tested on: Burkholderia thailandensis; assay: Antibacterial activity against Burkholderia thailandensis E264TS32C10 under muller hinton medium by CLSI protocol based microdilution method; format: functional
Pseudomonas aeruginosa [16] = assay: Antibacterial activity against Pseudomonas aeruginosa AM85 under succinate minimum medium by CLSI protocol based microdilution method; format: functional
[17] = tested on: Burkholderia thailandensis; assay: Antibacterial activity against Burkholderia thailandensis E264 under muller hinton medium by CLSI protocol based microdilution method; format: functional
[18] = tested on: Burkholderia thailandensis; assay: Antibacterial activity against Burkholderia thailandensis E264TS32C47 under muller hinton medium by CLSI protocol based microdilution method; format: functional
[19] = tested on: Burkholderia pseudomallei; assay: Antibacterial activity against Burkholderia pseudomallei BPS2020IRBA003 under succinate minimum medium by CLSI protocol based microdilution method; format: functional
[20] = tested on: Burkholderia thailandensis; assay: Antibacterial activity against Burkholderia thailandensis E264 under 1 uM FeCl3 medium by CLSI protocol based microdilution method; format: functional
Pseudomonas aeruginosa [21] = assay: Antibacterial activity against Pseudomonas aeruginosa AM85 under 1 uM FeCl3 medium by CLSI protocol based microdilution method; format: functional
[22] = tested on: Burkholderia pseudomallei; assay: Antibacterial activity against Burkholderia pseudomallei BPS2020IRBA002 under 1 uM FeCl3 medium by CLSI protocol based microdilution method; format: functional
[23] = tested on: Burkholderia pseudomallei; assay: Antibacterial activity against Burkholderia pseudomallei BPS2020IRBA001 under muller hinton medium by CLSI protocol based microdilution method; format: functional
[24] = tested on: Burkholderia thailandensis; assay: Antibacterial activity against Burkholderia thailandensis E264TS32C12 under 1 uM FeCl3 medium by CLSI protocol based microdilution method; format: functional
[25] = tested on: Burkholderia thailandensis; assay: Antibacterial activity against Burkholderia thailandensis E264TS32C10 under 1 uM FeCl3 medium by CLSI protocol based microdilution method; format: functional
[26] = tested on: Burkholderia thailandensis; assay: Antibacterial activity against Burkholderia thailandensis E264TS32C12 under muller hinton medium by CLSI protocol based microdilution method; format: functional
[27] = tested on: Burkholderia pseudomallei; assay: Antibacterial activity against Burkholderia pseudomallei BPS2020IRBA003 under muller hinton medium by CLSI protocol based microdilution method; format: functional
[28] = tested on: Burkholderia pseudomallei; assay: Antibacterial activity against Burkholderia pseudomallei BPS2020IRBA005 under succinate minimum medium by CLSI protocol based microdilution method; format: functional
Pseudomonas aeruginosa [29] = assay: Antibacterial activity against Pseudomonas aeruginosa PAO1 under 1 uM FeCl3 medium by CLSI protocol based microdilution method; format: functional
HepG2 = assay: Cytotoxicity against human HepG2 cells at 23 ug/ml after 48 hrs by CellTiter-Glo luminescent cell viability assay; format: toxicity, cell-based; settings: hepg2, 48 h, dose 23 µg/ml
[30] = tested on: Burkholderia thailandensis; assay: Antibacterial activity against Burkholderia thailandensis E264TS32C47 under 1 uM FeCl3 medium by CLSI protocol based microdilution method; format: functional
[31] = tested on: Burkholderia pseudomallei; assay: Antibacterial activity against Burkholderia pseudomallei BPS2020IRBA002 under muller hinton medium by CLSI protocol based microdilution method; format: functional
[32] = tested on: Burkholderia thailandensis; assay: Antibacterial activity against Burkholderia thailandensis E264 under succinate minimum medium by CLSI protocol based microdilution method; format: functional
Pseudomonas aeruginosa [33] = assay: Antibacterial activity against Pseudomonas aeruginosa PAO1 under succinate minimum medium by CLSI protocol based microdilution method; format: functional
Pseudomonas aeruginosa [34] = assay: Antibacterial activity against Pseudomonas aeruginosa AM85 under muller hinton medium by CLSI protocol based microdilution method; format: functional
[35] = tested on: Burkholderia pseudomallei; assay: Antibacterial activity against Burkholderia pseudomallei BPS2020IRBA005 under muller hinton medium by CLSI protocol based microdilution method; format: functional
Pseudomonas aeruginosa [36] = assay: Antibacterial activity against Pseudomonas aeruginosa PAD07 under 1 uM FeCl3 medium by CLSI protocol based microdilution method; format: functional
[37] = tested on: Burkholderia pseudomallei; assay: Antibacterial activity against Burkholderia pseudomallei K96243 under succinate minimum medium by CLSI protocol based microdilution method; format: functional

`O=C(O)c1cn(C2CC2)c2cc(N3CCN(C(=O)c4ccc(O)c(O)c4)CC3)c(F)cc2c1=O` showed an MIC (Pseudomonas aeruginosa [1]) of 8 µg/mL (≈ 17.1 µM), an MIC [2] of over 128 µg/mL and an MIC [3] of over 128 µg/mL. The MIC (Pseudomonas aeruginosa [4]) was 8 µg/mL (≈ 17.1 µM), the MIC [5] was 128 µg/mL (≈ 274 µM) and the MIC [6] was 128 µg/mL (≈ 274 µM). The MIC [7] was over 128 µg/mL, the MIC (Pseudomonas aeruginosa [8]) was 8 µg/mL (≈ 17.1 µM) and the MIC [9] was 128 µg/mL (≈ 274 µM). For the same compound, the MIC [10] was 64 µg/mL (≈ 137 µM), the MIC [11] was over 128 µg/mL and the MIC [12] was 128 µg/mL (≈ 274 µM). The MIC [13] was 64 µg/mL (≈ 137 µM), the MIC [14] was over 128 µg/mL and the MIC [15] was over 128 µg/mL. It also gave an MIC (Pseudomonas aeruginosa [16]) of 128 µg/mL (≈ 274 µM), an MIC [17] of 128 µg/mL (≈ 274 µM) and an MIC [18] of over 128 µg/mL. The MIC [19] was 128 µg/mL (≈ 274 µM), the MIC [20] was 128 µg/mL (≈ 274 µM) and the MIC (Pseudomonas aeruginosa [21]) was over 128 µg/mL. The MIC [22] was over 128 µg/mL, the MIC [23] was over 128 µg/mL and the MIC [24] was over 128 µg/mL. For the same compound, the MIC [25] was over 128 µg/mL, the MIC [26] was over 128 µg/mL and the MIC [27] was 128 µg/mL (≈ 274 µM). The MIC [28] was over 128 µg/mL, the MIC (Pseudomonas aeruginosa [29]) was 8 µg/mL (≈ 17.1 µM) and the Activity (HepG2) was “Non-Toxic”. For the same compound, the MIC [30] was over 128 µg/mL, the MIC [31] was over 128 µg/mL and the MIC [32] was 64 µg/mL (≈ 137 µM). The MIC (Pseudomonas aeruginosa [33]) was 8 µg/mL (≈ 17.1 µM), the MIC (Pseudomonas aeruginosa [34]) was over 128 µg/mL and the MIC [35] was over 128 µg/mL. The MIC (Pseudomonas aeruginosa [36]) was 8 µg/mL (≈ 17.1 µM) and the MIC [37] was 64 µg/mL (≈ 137 µM).

Work on `O=C(O)c1cn(C2CC2)c2cc(N3CCN(C(=O)c4cc(=O)c(O)c[nH]4)CC3)c(F)cc2c1=O` yielded an MIC (Pseudomonas aeruginosa [1]) of 32 µg/mL (≈ 68.3 µM), an MIC [2] of over 128 µg/mL and an MIC [3] of over 128 µg/mL. The MIC (Pseudomonas aeruginosa [4]) was 2 µg/mL (≈ 4.27 µM), the MIC [5] was over 128 µg/mL and the MIC [6] was over 128 µg/mL. It also gave an MIC [7] of over 128 µg/mL, an MIC (Pseudomonas aeruginosa [8]) of 32 µg/mL (≈ 68.3 µM) and an MIC [9] of over 128 µg/mL. It also gave an MIC [10] of over 128 µg/mL, an MIC [11] of over 1.8 µg/mL and an MIC [12] of over 128 µg/mL. The MIC [13] was over 128 µg/mL, the MIC [14] was over 128 µg/mL and the MIC [15] was 32 µg/mL (≈ 68.3 µM). For the same compound, the MIC (Pseudomonas aeruginosa [16]) was over 128 µg/mL, the MIC [17] was over 128 µg/mL and the MIC [18] was over 128 µg/mL. For the same compound, the MIC [19] was over 128 µg/mL, the MIC [20] was over 128 µg/mL and the MIC (Pseudomonas aeruginosa [21]) was over 128 µg/mL. For the same compound, the MIC [22] was over 128 µg/mL, the MIC [23] was over 128 µg/mL and the MIC [24] was over 128 µg/mL. The MIC [25] was over 128 µg/mL, the MIC [26] was over 128 µg/mL and the MIC [27] was over 128 µg/mL. For the same compound, the MIC [28] was over 128 µg/mL, the MIC (Pseudomonas aeruginosa [29]) was 32 µg/mL (≈ 68.3 µM) and the Activity (HepG2) was “Non-Toxic”. The MIC [30] was over 128 µg/mL, the MIC [31] was over 128 µg/mL and the MIC [32] was over 128 µg/mL. For the same compound, the MIC (Pseudomonas aeruginosa [33]) was 32 µg/mL (≈ 68.3 µM), the MIC (Pseudomonas aeruginosa [34]) was over 128 µg/mL and the MIC [35] was over 128 µg/mL. It also gave an MIC (Pseudomonas aeruginosa [36]) of 16 µg/mL (≈ 34.2 µM) and an MIC [37] of over 128 µg/mL.
